Experimental data published in US7825160B2, “(Biphenyl) carboxylic acids and derivatives thereof” (Cellzome Limited, priority 2004, dated 2010).

Legend:
[1] = Demonstration of CNS penetration, brain and plasma levels in mice; type: in vivo; details: mouse, oral, mice (C57), 100 mg/kg orally, samples at 2, 4 and 8 h, read-out: % ratio of brain to plasma concentration
Protocol: In-vivo Study: A total number of 24 mice (C57) were dosed orally at 100 mg/kg of drug compound in 10% propylene glycol, 7.5% ethanol and 82.5% solutol. At designated times (2, 4 and 8 his), a group of eight mice were sacrificed, and plasma and brain tissue samples were collected by following the NIH guideline.
Bioanalytical: Plasma samples were prepared as follows. Two hundred microliters of acetonitrile containing internal standard was added to 100 μL of plasma to precipitate proteins. After vortexing, samples were centrifuged at 10000 g for 10 min and supernatants were transferred to HPLC sample vials for analysis by LC-MS-MS. Calibration standards were prepared by adding appropriate volumes of drug stock solution directly into blank plasma (from untreated animals) and processed identically to collected plasma samples.
Brain tissues were first homogenized in two-volume of PBS buffer (e.g. 100 mg tissue in 200 μL PBS). Two hundred microliters of acetonitrile containing internal standard was added to 100 μL of tissue homogenants to precipitate proteins. Three replicates were processed for each tissue homogenant. After vortexing, samples were centrifuged at 10000 g for 10 min and supernatants were transferred to HPLC sample vials for analysis by LC-MS-MS. […]

γ-secretase activity = test: Screening for γ-secretase-modulating activity in SKN neuroblastoma cells carrying APP swedish mutant; type: cell-based; details: read-out: IC50 on the γ-secretase activity, Activity range
Protocol: Screening was carried out using SKN neuroblastoma cells carrying the APP-“swedish mutant” (point mutations at position 595 and 596, numbering based on APP695) grown in DMEM/NUT-mix F12 (HAM) provided by Gibco (cat no. 31330-38) containing 5% Serum/Fe supplemented with 1% non-essential amino acids, 100 U/ml Pen/Strep.
Cells were grown to near confluency.
The screening was performed using the assay as described in Citron et al (1997) Nature Medicine 3: 67.
IC50-Values of Selected Compounds of the Invention on the γ-Secretase Activity.

Cyclooxygenase-2 (Cox-2) = molecular target: T1, Cyclooxygenase-2 (Cox-2) (Ovis aries, UniProt P79208); test: Colorimetric Cox inhibitor screening assay (Cayman), Cox-2; type: biochemical
T1 construct: purchased Cayman Chemical Company 760111
T1 sequence (P79208 17-603): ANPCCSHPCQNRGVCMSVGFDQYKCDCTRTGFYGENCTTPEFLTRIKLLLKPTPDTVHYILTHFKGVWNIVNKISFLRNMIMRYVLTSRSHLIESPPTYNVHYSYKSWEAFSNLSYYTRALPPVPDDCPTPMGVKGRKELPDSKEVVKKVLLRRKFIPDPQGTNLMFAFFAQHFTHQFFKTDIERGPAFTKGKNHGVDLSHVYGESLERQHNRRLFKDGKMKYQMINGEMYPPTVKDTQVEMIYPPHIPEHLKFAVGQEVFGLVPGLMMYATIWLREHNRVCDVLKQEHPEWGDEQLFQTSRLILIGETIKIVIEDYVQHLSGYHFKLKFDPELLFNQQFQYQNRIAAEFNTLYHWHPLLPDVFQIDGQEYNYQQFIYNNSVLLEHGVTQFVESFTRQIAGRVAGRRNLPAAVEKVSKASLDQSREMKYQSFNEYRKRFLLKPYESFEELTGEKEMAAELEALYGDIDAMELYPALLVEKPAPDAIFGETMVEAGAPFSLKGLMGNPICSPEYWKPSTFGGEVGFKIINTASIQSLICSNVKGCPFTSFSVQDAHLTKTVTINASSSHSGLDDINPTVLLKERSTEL
Protocol: (§1) Determination of the Effect of the Compounds According to the Invention on Cyclooxygenase-1 and Cyclooxygenase-2 (Cox-1, Cox-2)
(§2) Inhibition of Cox-1 and Cox-2 was determined using the Colorimetric Cox inhibitor screening assay provided by Cayman Chemical Company, Ann Arbor, Mich., USA. (Cat. No. 760111) according to manufacturer's instructions.

Cyclooxygenase-1 (Cox-1) = molecular target: T2, Cyclooxygenase-1 (Cox-1) (Ovis aries, UniProt P05979); test: Colorimetric Cox inhibitor screening assay (Cayman), Cox-1; type: biochemical
T2 construct: purchased Cayman Chemical Company 760111
T2 sequence (P05979 25-600): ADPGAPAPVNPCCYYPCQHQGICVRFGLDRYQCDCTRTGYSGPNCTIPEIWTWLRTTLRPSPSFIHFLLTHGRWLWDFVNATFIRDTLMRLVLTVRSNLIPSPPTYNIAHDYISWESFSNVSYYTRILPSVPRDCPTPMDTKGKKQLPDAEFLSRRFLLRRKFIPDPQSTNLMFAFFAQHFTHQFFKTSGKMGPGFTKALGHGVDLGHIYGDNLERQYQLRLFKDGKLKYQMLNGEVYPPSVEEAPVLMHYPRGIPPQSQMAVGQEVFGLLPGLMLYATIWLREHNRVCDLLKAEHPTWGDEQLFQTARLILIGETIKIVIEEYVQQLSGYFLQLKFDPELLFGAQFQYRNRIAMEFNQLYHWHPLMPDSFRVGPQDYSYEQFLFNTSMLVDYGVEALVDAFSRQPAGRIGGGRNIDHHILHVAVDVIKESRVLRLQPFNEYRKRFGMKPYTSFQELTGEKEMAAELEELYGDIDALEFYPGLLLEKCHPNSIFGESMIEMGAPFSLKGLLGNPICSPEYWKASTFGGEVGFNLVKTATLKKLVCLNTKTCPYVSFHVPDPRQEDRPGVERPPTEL
Protocol: as §1, §2

Structure (SMILES) | Kp [1] | IC50 (γ-secretase activity) [nM] | inhibition at 100 µM (Cyclooxygenase-2 (Cox-2)) [%] | inhibition at 100 µM (Cyclooxygenase-1 (Cox-1)) [%]
CCC[C@@H](C(=O)O)c1cc(OCc2ccccc2)cc(-c2ccc(C(F)(F)F)cc2)c1 (single isomer, unassigned) [LXIV] | 0.286 | – | – | –
CCC[C@H](C(=O)O)c1cc(OCc2ccccc2)cc(-c2ccc(C(F)(F)F)cc2)c1 (single isomer, unassigned) [LXV] | 0.32 | – | – | –
O=C(O)Cc1cc(OCc2ccc(F)cc2)cc(-c2ccc(C(F)(F)F)cc2)c1 [I, [5-(4-Fluoro-benzyloxy)-4′-trifluoromethyl-biphenyl-3-yl]-acetic acid] | – | 1000 to 10000 | < 50 | < 50
O=C(O)Cc1cc(OCc2ccc(C(F)(F)F)cc2)cc(-c2ccc(C(F)(F)F)cc2)c1 [III, [4′-Trifluoromethyl-5-(4-trifluoromethyl-benzyloxy)-biphenyl-3-yl]-acetic acid] | – | < 1000 | < 50 | < 50
O=C(O)Cc1cc(OCc2ccccc2)cc(-c2cc(Cl)cc(Cl)c2)c1 [IX, (5-Benzyloxy-3′,5′-dichloro-biphenyl-3-yl)-acetic acid] | – | 1000 to 10000 | < 50 | < 50
O=C(O)Cc1cc(OCC2CCCCC2)cc(-c2ccc(C(F)(F)F)cc2)c1 [V, (5-Cyclohexylmethoxy-4′-trifluoromethyl-biphenyl-3-yl)-acetic acid] | – | < 1000 | < 50 | < 50
O=C(O)Cc1cc(OCc2ccc(S(=O)(=O)N3CCCC3)cc2)cc(-c2ccc(C(F)(F)F)cc2)c1 [VI, {5-[4-(Pyrrolidine-1-sulfonyl)-benzyloxy]-4′-trifluoromethyl-biphenyl-3-yl}-acetic acid] | – | 1000 to 10000 | < 50 | < 50
CCCC(C(=O)O)c1cc(OCc2ccccc2)cc(-c2ccc(C(F)(F)F)cc2)c1 (centres unmarked) [VIII, 2-(5-Benzyloxy-4′-trifluoromethyl-biphenyl-3-yl)-pentanoic acid] | – | < 1000 | < 50 | < 50
O=C(O)Cc1cc(OCc2ccccc2)cc(-c2ccc(C(F)(F)F)cc2)c1 [X, (5-Benzyloxy-4′-trifluoromethyl-biphenyl-3-yl)-acetic acid] | – | 1000 to 10000 | < 50 | < 50
O=C(O)Cc1cc(OCc2ccccc2)cc(-c2ccc(OC(F)(F)F)cc2)c1 [XIII, (5-Benzyloxy-4′-trifluoromethoxy-biphenyl-3-yl)-acetic acid] | – | 1000 to 10000 | < 50 | < 50
CC(C(=O)O)c1cc(OCc2ccccc2)cc(-c2ccc(C(F)(F)F)cc2)c1 (centres unmarked) [XIX, 2-(5-Benzyloxy-4′-trifluoromethyl-biphenyl-3-yl)-propionic acid] | – | 1000 to 10000 | < 50 | < 50
CCCC(C(=O)O)c1cc(OCC2CC2)cc(-c2ccc(C(F)(F)F)cc2)c1 (centres unmarked) [XL, 2-(5-Cyclopropylmethoxy-4′-trifluoromethyl-biphenyl-3-yl)-pentanoic acid] | – | 1000 to 10000 | < 50 | < 50
O=C(O)Cc1cc(OCC2CC2)cc(-c2ccc(C(F)(F)F)cc2)c1 [XLII, (5-Cyclopropylmethoxy-4′-trifluoromethyl-biphenyl-3-yl)-acetic acid] | – | 1000 to 10000 | < 50 | < 50
O=C(O)Cc1cc(OCc2cc(Cl)cc(Cl)c2)cc(-c2ccc(C(F)(F)F)cc2)c1 [XLIV, [5-(3,5-Dichloro-benzyloxy)-4′-trifluoromethyl-biphenyl-3-yl]-acetic acid] | – | 1000 to 10000 | < 50 | < 50
CN(C)S(=O)(=O)c1ccc(COc2cc(CC(=O)O)cc(-c3ccc(C(F)(F)F)cc3)c2)cc1 [XLVI, [5-(4-Dimethylsulfamoyl-benzyloxy)-4′-trifluoromethyl-biphenyl-3-yl]-acetic acid] | – | 1000 to 10000 | < 50 | < 50
CC(Oc1cc(CC(=O)O)cc(-c2ccc(C(F)(F)F)cc2)c1)c1ccccc1 (centres unmarked) [XLVII, [5-(1-Phenyl-ethoxy)-4′-trifluoromethyl-biphenyl-3-yl]-acetic acid] | – | 1000 to 10000 | < 50 | < 50
CC(C)(C(=O)O)c1cc(OCc2ccccc2)cc(-c2ccc(C(F)(F)F)cc2)c1 [XX, 2-(5-Benzyloxy-4′-trifluoromethyl-biphenyl-3-yl)-2-methyl-propionic acid] | – | 1000 to 10000 | < 50 | < 50
O=C(O)C1(c2cc(OCc3ccccc3)cc(-c3ccc(C(F)(F)F)cc3)c2)CC1 [XXI, 1-(5-Benzyloxy-4′-trifluoromethyl-biphenyl-3-yl)-cyclopropanecarboxylic acid] | – | 1000 to 10000 | < 50 | < 50
CCCC(C(=O)O)c1cc(OCc2ccc(S(=O)(=O)N3CCCC3)cc2)cc(-c2ccc(C(F)(F)F)cc2)c1 (centres unmarked) [XXXIX, 2-{5-[4-(Pyrrolidine-1-sulfonyl)-benzyloxy]-4′-trifluoromethyl-biphenyl-3-yl}-pentanoic acid] | – | 1000 to 10000 | < 50 | < 50
